According to patent US4379150A, “Dibenz[b,f][1,4]oxazepine derivatives, process for preparing the same, and pharmaceutical compositions comprising the same” (Chugai Seiyaku Kabushiki Kaisha, priority 1980, dated 1983):
Where a name gives a salt, the structure may show the parent alone.

system: isolated, donor-perfused rat hearts; experiment: inhibition of coronary vasoconstriction induced by acetylcholine 0.3 μg in isolated, donor-perfused rat hearts; conditions: 30 μg, administered in the artery
Procedure: The effect of the compounds of the present invention to inhibit coronary vasoconstriction was studied. That vasoconstriction was induced by acetylcholine 0.3 μg in isolated, donor-perfused rat hearts (K. Sakai, Brit. J. Pharmacol., 68, 625-638, 1980), and determined by measuring the arterial perfusion pressure with a pressure transducer (Nihon Kohden MPU--0.5). The compounds of the present invention were administered in the artery in an amount between 30 and 60 μg.

Structure (SMILES) | inhibition at 0.03 mg [%]
CCOC(=O)c1ccc2c(c1)N(CCN(C)C)C(=O)c1cc(C(C)C)cc(C(C)C)c1O2 [Comp. of Ex. 1, 2,4-diisopropyl-10[2-(dimethylamino)ethyl]-8-ethoxycarbonyl-dibenz[b,f][1,4] oxazepine-11(10H)-one] | ≥ 41
CC(C)c1cc2c(c(C(C)C)c1)Oc1ccccc1N(CCN(C)C)C2=O [Comp. of Ex. 2] | 31 to 40
CC(C)c1cc2c(c(C(C)C)c1)Oc1ccccc1N(CCCN(C)C)C2=O [Comp. of Ex. 3] | ≥ 41
COc1ccc2c(c1)N(CCCN(C)C)C(=O)c1cc(C(C)C)cc(C(C)C)c1O2 [Comp. of Ex. 5] | 20 to 30
CCOC(=O)c1ccc2c(c1)N(CCN(C)C)C(=O)c1cc(C(C)(C)CC)ccc1O2 [Comp. of Ex. 8] | 31 to 40
CCOC(=O)c1ccc2c(c1)N(CCCN(C)C)C(=O)c1cc(C(C)(C)CC)ccc1O2 [Comp. of Ex. 9] | ≥ 41
CCC(C)(C)c1ccc2c(c1)C(=O)N(CCCN(C)C)c1ccccc1O2 [Comp. of Ex. 10] | 20 to 30
CCOC(=O)c1ccc2c(c1)N(CCCN(C)C)C(=O)c1cc(C(C)C)cc(C(C)C)c1O2 [Comp. of Ex. 14] | 31 to 40
CC(C)c1cc2c(c(C(C)C)c1)Oc1ccc(C(=O)O)cc1N(CCN(C)C)C2=O [Comp. of Ex. 15, 2,4-diisopropyl-10-[2-(dimethylamino)ethyl]-8-carboxy-dibenz[b,f][1,4]-oxazepine-11(10H)-one hydrochloride] | 20 to 30
CC(C)c1cc2c(c(C(C)C)c1)Oc1ccc(C(N)=O)cc1N(CCN(C)C)C2=O [Comp. of Ex. 17, 2,4-diisopropyl-10-[2-(dimethylamino)ethyl]-8-carbamoyl-dibenz[b,f][1,4]oxazepine-11(10H)-one] | 20 to 30

same assay, conditions: 60 μg, administered in the artery

Structure (SMILES) | inhibition at 0.06 mg [%]
COc1ccc2c(c1)N(CCN(C)C)C(=O)c1cc(C(C)C)cc(C(C)C)c1O2 [Comp. of Ex. 4] | 20 to 30
